In patent EP4722228A1, “NEW COMPOUND TARGETING MUSK AND USE THEREOF” (The University of Tokyo, priority 2023, dated 2024):
Bridge positions count the residues as written; N and C are the ends. Square brackets hold non-standard residues; d marks the D form. Peptide text beside a SMILES is read from it. I, II: the chains in the order shown. * marks the point of attachment. Palmitoyl = CCCCCCCCCCCCCCCC(=O)*; PEG3 = NCCOCCOCCOCCC(=O)O; Dap = NC[C@H](N)C(=O)O

Experiments:
[1] = system: rat PTMG model using anti-acetylcholine receptor monoclonal antibody (mAb35); assay: Movement score in rat PTMG model; type: in vivo
Procedure: (§1) 5-week-old female rats (n=20, LEW/CrlCrlj, 4 weeks old when carried in, Jackson Laboratory Japan) were divided into four groups (Group A, Group B, Group C, and Group D) using body weight measurement results as indexes. Vehicle was administered to Group A, and the test compound MuSK7-pal dissolved in vehicle was administered intravenously to each of Group B (3 mg/kg), Group C (2 mg/kg), and Group D (1 mg/kg) (Day 0). Two hours after intravenous administration, an anti-nicotinic acetylcholine receptor monoclonal antibody (mAb35, National Hospital Organization Nagasaki Kawatana Medical Center) dissolved in PBS (pH 7.4) as a drug for inducing the pathology of myasthenia gravis was administered intraperitoneally to all animals at 200 µg/rat (Day 0). The vehicle, which was a solvent of the compound, was phosphate-buffered saline (PBS) at pH 7.4 containing 20% hydroxypropyl-β-cyclodextrin and 0.02% polysorbate 80 (the same applies to Example 3(2)).
The movement of the animals was evaluated at each time point of 9, 24, 33, 48, 57, and 72 hours (hr) after antibody administration according to six-level evaluation criteria (Score). The evaluation criteria were as follows. • 0: Normal • 1: Reduced grip strength in forelimbs and hindlimbs • 2: Incomplete paralysis of hindlimbs • 3: Complete paralysis of hindlimbs and inability to stand • 4: Moribund • 5: Death
The average score of the rats in each group was calculated. In addition, in a cage in which a rat determined to have a score of 2 or higher was present, crushed transport agar (manufactured by Oriental Yeast Co., Ltd.) and pellet feed were provided.
as §1, with “(n=24,” for “(n=20,”, “(0.5” for “(3”, “(0.25” for “(2”, “(0.1” for “(1”, “0).” for “0). The vehicle, which was a solvent of the compound, was phosphate-buffered saline (PBS) at pH 7.4 containing 20% hydroxypropyl-β-cyclodextrin and 0.02% polysorbate 80 (the same applies to Example 3(2)).”
The movement of the animals was evaluated at each time point of 9, 24, 33, 48, 57, and 72 hours (hr) after antibody administration according to six-level evaluation criteria (Score). The evaluation criteria were the same as those in (1) B above.
(§2) 5-week-old female rats (LEW/CrlCrlj, 4 weeks old when carried in, Jackson Laboratory Japan) were divided into three groups (Group A, Group B, and Group C) using body weight measurement results as indexes. The test compound (tetramer of Ub012 (EAAAK)3) dissolved in vehicle was administered intravenously to Group A (5 mg/kg) (n=5), the test compound (tetramer of Ub012(ΔGG) (EAAAK)3) dissolved in vehicle was administered intravenously to Group B (5 mg/kg) (n=5), and vehicle was administered intravenously to Group C (n=5), respectively (Day 0). Two hours after intravenous administration, an anti-nicotinic acetylcholine receptor monoclonal antibody (mAb35, National Hospital Organization Nagasaki Kawatana Medical Center) dissolved in PBS (pH 7.4) as a drug for inducing the pathology of myasthenia gravis was administered intraperitoneally to all animals at 200 µg/rat (Day 0).
The movement of the animals was evaluated at each time point of 9, 24, 33, 48, 57, and 72 hours (hr) after antibody administration according to six-level evaluation criteria (Score). The evaluation criteria were the same as those in Example 3(1) B.

[2] = system: rat PTMG model using anti-acetylcholine receptor monoclonal antibody (mAb35); assay: Grip Strength Test in rat PTMG model; type: in vivo; conditions: approx. 30 hours after antibody
Procedure: as §1
Approximately 30 hours after antibody administration, the muscle strength of the rats was measured using a mouse grip strength meter (GRIP STRENGTH METER FOR MICE, MODEL MK-380M, Muromachi Kikai Co., Ltd.). Specifically, the rats were left for 15 minutes or longer, and after confirming that they were in a resting state, the forelimbs of the rats were made to grasp the mouse grip strength meter. Next, the bodies of the rats were pulled, and the scale of the grip strength meter at the point when the rats released the wire mesh was read (first measurement). The above procedure was repeated once more (second measurement). When the difference between the first and second measurement values was 20% or less, the average value thereof was used as the measurement value. When the difference was 20% or more, the above procedure was further performed once more (third measurement), and the average value of two measurements with close values among the three measurements was used as the measurement value.
5-week-old female rats (n=24, LEW/CrlCrlj, 4 weeks old when carried in, Jackson Laboratory Japan) were divided into four groups (Group A, Group B, Group C, and Group D) using body weight measurement results as indexes. Vehicle was administered to Group A, and the test compound MuSK7-pal dissolved in vehicle was administered intravenously to each of Group B (0.5 mg/kg), Group C (0.25 mg/kg), and Group D (0.1 mg/kg) (Day 0). Two hours after intravenous administration, an anti-nicotinic acetylcholine receptor monoclonal antibody (mAb35, National Hospital Organization Nagasaki Kawatana Medical Center) dissolved in PBS (pH 7.4) as a drug for inducing the pathology of myasthenia gravis was administered intraperitoneally to all animals at 200 µg/rat (Day 0).
The Grip Strength Test was performed approximately 30 hours after antibody administration. The implementation procedure was the same as that in (1) B above.
as §2
The Grip Strength Test was performed approximately 30 hours after antibody administration. The implementation procedure was the same as that in Example 3(1) B.

Q: How did the movement score ([1]; 0.1 mg/kg intravenously (Group D, Example 3(2)), not significant vs Group A) turn out when `CCCCCCCCCCCCCCCC(=O)NCCCC[C@H](NC(=O)[C@H](CNC(=O)CCOCCOCCOCCNC(=O)CNC(=O)[C@@H]1CSCC(=O)N[C@H](Cc2ccc(O)cc2)C(=O)N2CCC[C@H]2C(=O)N[C@@H](CO)C(=O)N[C@@H](Cc2ccc(O)cc2)C(=O)N[C@@H](Cc2c[nH]cn2)C(=O)N[C@@H]([C@@H](C)O)C(=O)N[C@@H](CC(N)=O)C(=O)N[C@@H](C(C)C)C(=O)N[C@@H](C(C)C)C(=O)N[C@@H](C)C(=O)N[C@@H](CO)C(=O)N[C@@H](CC(C)C)C(=O)N[C@@H](CCCCN)C(=O)N[C@@H](CCCNC(=N)N)C(=O)N1)NC(=O)CCOCCOCCOCCNC(=O)CNC(=O)[C@@H]1CSCC(=O)N[C@H](Cc2ccc(O)cc2)C(=O)N2CCC[C@H]2C(=O)N[C@@H](CO)C(=O)N[C@@H](Cc2ccc(O)cc2)C(=O)N[C@@H](Cc2c[nH]cn2)C(=O)N[C@@H]([C@@H](C)O)C(=O)N[C@@H](CC(N)=O)C(=O)N[C@@H](C(C)C)C(=O)N[C@@H](C(C)C)C(=O)N[C@@H](C)C(=O)N[C@@H](CO)C(=O)N[C@@H](CC(C)C)C(=O)N[C@@H](CCCCN)C(=O)N[C@@H](CCCNC(=N)N)C(=O)N1)C(N)=O` [MuSK7-pal] (I: {CH2CO}-[dY]PSYHTNVVASLKRCG[PEG3][Dap]K(Palmitoyl)-NH2 / II: {CH2CO}-[dY]PSYHTNVVASLKRCG[PEG3]; amide I:18-II:C; thioether I:N-I:15, II:N-II:15) was run?
A: Its movement score is “the scores remained low compared to the control group”.

Q: And the movement score ([1]; 0.25 mg/kg intravenously (Group C, Example 3(2)), Dunn's test)?
A: Its movement score is “significantly lower than those in Group A at all measurement points except at 9 hr and at 57 hr”.

Q: And the movement score ([1]; 0.5 mg/kg intravenously (Group B, Example 3(2)), Dunn's test)?
A: Its movement score is “significantly lower than those in Group A at all measurement points after 24 hr”.

Q: What about the movement score ([1]; 1 mg/kg intravenously (Group D, Example 3(1)), all individuals, all measurement points, score 0-5) of the same compound?
A: Its movement score is 0.

Q: And the movement score ([1]; 2 mg/kg intravenously (Group C, Example 3(1)), 9 to 72 hr, score 0-5)?
A: The movement score was “the scores remained low at all measurement points”.

Q: What about the movement score ([1]; 3 mg/kg intravenously (Group B, Example 3(1)), 9 to 72 hr, score 0-5) of the same compound?
A: Its movement score is “the scores remained low at all measurement points”.

Q: What about the grip strength ([2]; 0.1 mg/kg intravenously (Group D, Example 3(2))) of the same compound?
A: The grip strength was 452 g.

Q: And the grip strength ([2]; 0.25 mg/kg intravenously (Group C, Example 3(2)))?
A: The grip strength was 476 g.

Q: And the grip strength ([2]; 0.5 mg/kg intravenously (Group B, Example 3(2)))?
A: Its grip strength is 461 g.

Q: And the grip strength ([2]; 1 mg/kg intravenously (Group D, Example 3(1)))?
A: Its grip strength is 577 g.

Q: What about the grip strength ([2]; 2 mg/kg intravenously (Group C, Example 3(1))) of the same compound?
A: The grip strength was 474 g.

Q: What about the grip strength ([2]; 3 mg/kg intravenously (Group B, Example 3(1))) of the same compound?
A: Its grip strength is 467 g.
